Data: patent US20110319392A1, “Thiazole Sulfonamide And Oxazole Sulfonamide Kinase Inhibitors” (priority 2009, published 2011)
pIC50: −log10 of the molar value.

What was measured:
EGFR = molecular target: T1, EGFR (Homo sapiens, UniProt P00533); assay: EGFR substrate phosphorylation assay (HTRF); type: biochemical
T1 construct: made in house; host or cells: baculovirus expression system
In short: (§1)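 Baculovirus-expressed EGFR (0.8 nM) or ErbB2 (10 nM) in enzyme mix, preincubated 1 h at 20 °C with compound (0.00027–47.6 μM final), then 90 min at 20 °C with substrate mix of 20 μM ATP, 0.8 uM biotinylated Peptide C, MnCl2, MOPS pH 7.5. Phosphotyrosine by HTRF; pIC50 reported.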

HN5 tumor cells = assay: Cell growth inhibition assay (CellTiter-Glo), HN5; type: cell-based, Human; details: Homo sapiens, 72 h; 3 days incubation
Method: (§2) Human breast tumor cells (BT474) were cultured in RPMI (Mediatech […]), containing 10% FBS (JRH Biosciences 12176) and 1% penicillin-streptomycin (Invitrogen 15140). Human head and neck tumor cells (HN5) were cultured in high glucose DMEM (Mediatech 50-013-PB) containing 10% FBS and 1% penicillin-streptomycin. Human colon tumor cells (Colo205) were cultured in RPMI (Mediatech 50-020-PB) containing 10% FBS and 1% penicillin-streptomycin. Human melanoma cancer cells (SK-MEL-28) were cultured in EMEM with nonessential amino acids (Mediatech 50-011-PB) containing 10% FBS, 1% sodium pyruvate (JT Baker 3354-04), and 1% penicillin-streptomycin. Human melanoma cancer cells (A375P F11s) were cultured in RPMI (Mediatech 50-020-PB) containing 10% FBS, 1% sodium pyruvate, and 1% penicillin-streptomycin. Human colon cancer cells (HT-29) were cultured in high glucose DMEM (Mediatech 50-013-PB) containing 10% FBS and 1% penicillin-streptomycin. Human melanoma cancer cells (SK-MEL-3) were cultured in McCoy's 5A (50-025-PB) containing 15% FBS, and 1% penicillin-streptomycin. All cell lines were maintained at 37° C. in a humidified 5% CO2, 95% air incubator. Cells were harvested using trypsin/EDTA (Invitrogen 25200), counted using a haemocytometer, and plated. For 96-well assays (using white full-area NUNC plates cat. #136102), cells were plated in 105 μL at the following densities (cells/well): HNS, 500; Colo 205, 500; SK-MEL-28, 500; A375P F11s, 500; HT-29, 500; SK-MEL-3, 500; and BT474, 3000. For 384-well assays (white full-area NUNC plates, cat. #781080), cells were plated in 48 μL at the following densities (cells/well): HNS, 500; Colo205, 500; SK-MEL-28, 500; A375P F11s, 500; HT-29, 500; SK-MEL-3, 500; and BT474, 2000.
(§3) The next day, compounds were diluted as follow: For 96-well assays, 13.5 μL of compound in DMSO were diluted using nine (9) serial 1:3 dilutions of 4.5 μL in 9 of DMSO. Medium (270 μL/well of RPMI with 10% FBS and 1% penicillin-streptomycin) was added to the plates. Aliquots (7 μL) were added to cells in the final assay giving a final DMSO concentration of 0.2%. For 384-well assays, 15 μL of compound in DMSO were diluted using nine (9) serial 1:3 dilutions of 5 μL in 10 μL of DMSO, followed by a further dilution of 5 μL of compound with 95 μL of medium, of which 2 μL were added to cells in the final assay giving a final DMSO concentration of 0.2%. Cells were incubated at 37° C., 5% CO2 for 3 days.
(§4) Total ATP was measured (as a surrogate estimate of cell number) using CellTiter-Glo® reagent (Promega G7571). Briefly, plates were removed from the incubator and allowed to equilibrate to room temperature for 30 minutes. CellTiter-Glo® (25 μL or 55 μL for 384-well or 96-well assays, respectively) reagent was added to each well and plates were shaken on an orbital plate shaker for 2 minutes. Plates were incubated without shaking for a further 30 minutes and read on an LJL Analyst GT reader in luminometer mode with an integration time of 0.5 seconds per well. Percent inhibition of cell growth was calculated relative to DMSO vehicle-treated control wells. Concentration of compound required to give 50% inhibition of vehicle-treated control cell growth (IC50) was interpolated using a 4-parameter fit for determining IC50 using the following equation: Y=A +((B−A)/(1+((C/X)̂D))) where […].

SK-MEL-28 tumor cells = assay: Cell growth inhibition assay (CellTiter-Glo), SK-MEL-28; type: cell-based, Human; details: Homo sapiens, SK-MEL-28, 72 h; 3 days incubation
In short: (§5)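 Cells plated at 500 cells/well in their growth media, dosed next day with nine-step 1:3 compound dilutions (final DMSO 0.2%), then incubated 3 days at 37° C, 5% CO2. Total ATP read by CellTiter-Glo luminescence as a surrogate for cell number; IC50 interpolated from 4-parameter fit versus DMSO controls.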

BT474 tumor cells = assay: Cell growth inhibition assay (CellTiter-Glo), BT474; type: cell-based, Human; details: Homo sapiens, BT-474, 72 h, 3 days incubation
Method: as §2, §3, §4

HT-29 tumor cells = assay: Cell growth inhibition assay (CellTiter-Glo), HT-29; type: cell-based, Human; details: for pIC50: Homo sapiens
Method: as §2, §3, §4

Colo205 tumor cells = assay: Cell growth inhibition assay (CellTiter-Glo), Colo205; type: cell-based, Human; details: Homo sapiens, COLO 205, 72 h; 3 days incubation
In short: as §5

B-Raf = B-Raf (Homo sapiens, UniProt P15056); assay: B-Raf Accelerated MEK ATPase assay (BRAMA), Method A or B; type: biochemical; details: Method B: final MEK 150 nM, single end point read
B-Raf, sequence (P15056 whole entry): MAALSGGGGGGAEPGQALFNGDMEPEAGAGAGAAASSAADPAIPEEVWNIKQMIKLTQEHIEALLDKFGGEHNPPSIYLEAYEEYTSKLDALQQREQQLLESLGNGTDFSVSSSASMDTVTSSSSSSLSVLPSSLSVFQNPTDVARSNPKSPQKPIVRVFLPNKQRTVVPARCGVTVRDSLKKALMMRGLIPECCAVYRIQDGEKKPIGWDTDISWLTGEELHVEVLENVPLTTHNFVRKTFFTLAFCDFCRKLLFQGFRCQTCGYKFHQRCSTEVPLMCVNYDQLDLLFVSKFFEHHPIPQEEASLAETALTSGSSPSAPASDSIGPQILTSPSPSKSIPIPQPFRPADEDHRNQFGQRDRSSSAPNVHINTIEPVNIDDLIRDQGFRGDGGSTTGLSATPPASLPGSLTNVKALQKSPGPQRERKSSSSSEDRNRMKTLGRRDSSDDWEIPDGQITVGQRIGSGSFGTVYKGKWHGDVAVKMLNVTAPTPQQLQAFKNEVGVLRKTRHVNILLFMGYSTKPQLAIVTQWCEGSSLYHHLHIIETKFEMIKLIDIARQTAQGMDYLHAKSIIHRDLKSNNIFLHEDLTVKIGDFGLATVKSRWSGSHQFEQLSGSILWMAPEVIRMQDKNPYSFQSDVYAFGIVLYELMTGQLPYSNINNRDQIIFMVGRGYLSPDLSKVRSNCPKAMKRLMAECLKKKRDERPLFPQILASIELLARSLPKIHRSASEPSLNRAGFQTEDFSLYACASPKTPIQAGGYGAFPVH
In short: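 Activated Raf plus non-phosphorylated MEK drives MEK-mediated ATP hydrolysis; ADP formation coupled via pyruvate kinase/lactate dehydrogenase to NADH oxidation. Method A read kinetically; Method B used 150 nM final MEK and a single end-point read.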

ErbB2 = molecular target: T2, ErbB2 (Homo sapiens, UniProt P04626); assay: ErbB-2 substrate phosphorylation assay (HTRF); type: biochemical
T2 construct: made in house; host or cells: baculovirus expression system
T2 sequence (P04626 23-1255): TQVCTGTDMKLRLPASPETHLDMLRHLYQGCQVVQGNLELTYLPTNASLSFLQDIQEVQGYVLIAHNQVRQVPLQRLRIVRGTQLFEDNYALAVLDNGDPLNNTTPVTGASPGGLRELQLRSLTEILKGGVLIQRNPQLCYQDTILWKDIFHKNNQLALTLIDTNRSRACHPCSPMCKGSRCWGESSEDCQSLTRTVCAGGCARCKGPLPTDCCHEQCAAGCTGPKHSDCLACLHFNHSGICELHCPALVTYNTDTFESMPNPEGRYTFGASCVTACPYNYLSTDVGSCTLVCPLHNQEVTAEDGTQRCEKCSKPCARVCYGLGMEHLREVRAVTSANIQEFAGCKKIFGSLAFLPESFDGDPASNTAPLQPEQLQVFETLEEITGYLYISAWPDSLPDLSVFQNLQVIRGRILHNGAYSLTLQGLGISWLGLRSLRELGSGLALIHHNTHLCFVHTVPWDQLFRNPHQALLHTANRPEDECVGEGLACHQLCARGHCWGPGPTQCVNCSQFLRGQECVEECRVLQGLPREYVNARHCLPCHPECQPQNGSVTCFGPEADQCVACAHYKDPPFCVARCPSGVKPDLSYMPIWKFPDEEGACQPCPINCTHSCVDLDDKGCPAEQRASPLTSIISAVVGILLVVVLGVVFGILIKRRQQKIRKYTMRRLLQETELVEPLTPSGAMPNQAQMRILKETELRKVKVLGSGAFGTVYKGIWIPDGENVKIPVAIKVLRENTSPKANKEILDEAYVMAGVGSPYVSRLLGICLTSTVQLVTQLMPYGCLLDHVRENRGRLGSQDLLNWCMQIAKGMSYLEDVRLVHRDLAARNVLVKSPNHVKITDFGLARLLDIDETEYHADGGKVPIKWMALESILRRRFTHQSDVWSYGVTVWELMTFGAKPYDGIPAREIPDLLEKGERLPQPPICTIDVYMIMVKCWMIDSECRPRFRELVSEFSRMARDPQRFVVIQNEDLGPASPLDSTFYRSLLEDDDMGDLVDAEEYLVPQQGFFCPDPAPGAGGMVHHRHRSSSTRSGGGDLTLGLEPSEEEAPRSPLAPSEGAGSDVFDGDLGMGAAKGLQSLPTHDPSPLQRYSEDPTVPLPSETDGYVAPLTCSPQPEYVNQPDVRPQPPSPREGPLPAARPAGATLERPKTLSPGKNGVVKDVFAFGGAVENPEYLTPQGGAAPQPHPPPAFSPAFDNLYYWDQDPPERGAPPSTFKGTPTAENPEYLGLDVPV
In short: as §1

SK-MEL-3 tumor cells = assay: Cell growth inhibition assay (CellTiter-Glo), SK-MEL-3; type: cell-based, Human; details: for pIC50: Homo sapiens, SK-MEL3
Method: as §2, §3, §4

A375P F11s tumor cells = assay: Cell growth inhibition assay (CellTiter-Glo), A375P F11s; type: cell-based, Human; details: for pIC50: Homo sapiens
Method: as §2, §3, §4

T1 sequence (P00533 25-1210): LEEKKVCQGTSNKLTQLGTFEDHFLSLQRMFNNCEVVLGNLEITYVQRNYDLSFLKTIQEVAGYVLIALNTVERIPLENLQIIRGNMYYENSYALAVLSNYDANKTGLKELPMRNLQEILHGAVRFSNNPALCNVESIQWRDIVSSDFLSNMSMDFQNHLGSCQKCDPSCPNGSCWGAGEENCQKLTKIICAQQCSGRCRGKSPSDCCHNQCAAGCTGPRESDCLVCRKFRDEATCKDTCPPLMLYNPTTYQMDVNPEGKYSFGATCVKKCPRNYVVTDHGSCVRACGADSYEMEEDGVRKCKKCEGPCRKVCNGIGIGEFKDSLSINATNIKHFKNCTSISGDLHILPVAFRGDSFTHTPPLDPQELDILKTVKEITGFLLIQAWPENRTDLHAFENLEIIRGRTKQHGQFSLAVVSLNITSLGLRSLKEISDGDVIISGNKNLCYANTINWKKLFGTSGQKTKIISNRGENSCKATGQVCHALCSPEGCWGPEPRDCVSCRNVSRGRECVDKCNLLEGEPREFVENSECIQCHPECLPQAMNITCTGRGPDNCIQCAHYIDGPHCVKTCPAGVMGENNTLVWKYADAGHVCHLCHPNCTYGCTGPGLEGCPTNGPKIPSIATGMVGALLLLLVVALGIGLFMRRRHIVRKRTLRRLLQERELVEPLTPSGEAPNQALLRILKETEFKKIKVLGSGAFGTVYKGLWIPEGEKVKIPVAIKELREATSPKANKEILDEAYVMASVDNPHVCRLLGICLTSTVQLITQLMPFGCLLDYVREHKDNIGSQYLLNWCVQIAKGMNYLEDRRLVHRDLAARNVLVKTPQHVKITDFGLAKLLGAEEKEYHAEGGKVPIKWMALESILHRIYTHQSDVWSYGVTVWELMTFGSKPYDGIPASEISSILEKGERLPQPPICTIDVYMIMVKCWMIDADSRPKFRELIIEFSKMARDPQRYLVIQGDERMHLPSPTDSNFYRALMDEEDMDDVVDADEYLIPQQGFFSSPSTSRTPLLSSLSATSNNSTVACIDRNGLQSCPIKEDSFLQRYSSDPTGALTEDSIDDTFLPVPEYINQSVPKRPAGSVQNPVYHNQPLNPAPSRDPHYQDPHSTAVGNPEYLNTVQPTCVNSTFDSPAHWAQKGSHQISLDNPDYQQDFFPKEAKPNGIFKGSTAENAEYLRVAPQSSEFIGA

| pIC50 (EGFR) | pIC50 (HN5 tumor cells) | pIC50 (SK-MEL-28 tumor cells) | pIC50 (BT474 tumor cells) | pIC50 (HT-29 tumor cells) | pIC50 (Colo205 tumor cells) | pIC50 (B-Raf) | pIC50 (ErbB2) | pIC50 (SK-MEL-3 tumor cells) | pIC50 (A375P F11s tumor cells) | Structure (SMILES) | Activity in SK-MEL-3 Tumor Cells (SK-MEL-3 tumor cells) | Activity in A375P F11s Tumor Cells (A375P F11s tumor cells) | Activity in HT-29 Tumor Cells (HT-29 tumor cells) |
| --- | --- | --- | --- | --- | --- | --- | --- | --- | --- | --- | --- | --- | --- |
| < 6.00 | < 6.00 | > 7.00 | < 6.00 | > 7.00 | > 7.00 | 6.00 to 7.00 | < 6.00 |  |  | CC(C)(F)c1nc(-c2cccc(NS(=O)(=O)c3c(F)cccc3F)c2)c(-c2ccnc(Nc3ccc(N4CCN(CCF)CC4)c(F)c3)n2)s1 [Example 94] |  |  |  |
| < 6.00 |  | > 7.00 |  | 6.00 to 7.00 | 6.00 to 7.00 | > 7.00 | < 6.00 | 6.00 to 7.00 | 6.00 to 7.00 | COc1cc(C2CCN(CCS(C)(=O)=O)CC2)c(C)cc1Nc1nccc(-c2sc(C(C)C)nc2-c2cccc(NS(=O)(=O)c3c(F)cccc3F)c2)n1 [Example 115] |  |  |  |
| < 6.00 | < 6.00 | 6.00 to 7.00 | < 6.00 | < 6.00 | 6.00 to 7.00 | > 7.00 | < 6.00 |  |  | CCc1nc(-c2ccc(F)c(NS(=O)(=O)c3ccccc3)c2)c(-c2ccnc(Nc3ccc(N4CCN(C(C)=O)CC4)nc3)n2)s1 [Example 66] |  |  |  |
| < 6.00 |  | 6.00 to 7.00 |  | 6.00 to 7.00 | > 7.00 | > 7.00 | < 6.00 | 6.00 to 7.00 | 6.00 to 7.00 | COc1c(NS(=O)(=O)c2c(F)cccc2F)cccc1-c1nc(N2CCOCC2)sc1-c1ccnc(Nc2ccc3c(c2)OCCO3)n1 [Example 170] |  |  |  |
| < 6.00 | 6.00 to 7.00 | > 7.00 | < 6.00 | 6.00 to 7.00 | > 7.00 |  | < 6.00 | > 7.00 | > 7.00 | CCc1nc(-c2cccc(NS(=O)(=O)c3ccccc3)c2)c(-c2ccnc(Nc3cc(OC)c(OC)c(OC)c3)n2)s1 [Example 2, N-{3-[2-Ethyl-5-(2-{[3,4,5-tris(methyloxy)phenyl]amino}-4-pyrimidinyl)-1,3-thiazol-4-yl]phenyl}benzenesulfonamide] |  |  |  |
| 6.00 to 7.00 |  | 6.00 to 7.00 |  |  | 6.00 to 7.00 | 6.00 to 7.00 | > 7.00 |  |  | COc1cc(N2CCN(CCS(C)(=O)=O)CC2)c(C)cc1Nc1nccc(-c2sc(C(C)C)nc2-c2cc(NS(=O)(=O)c3c(F)cccc3F)ccc2F)n1 [Example 144] |  |  |  |
| 6.00 to 7.00 |  | > 7.00 |  |  | > 7.00 | > 7.00 | 6.00 to 7.00 |  |  | COc1cc(OCCN2CCOCC2)c(C)cc1Nc1nccc(-c2sc(C(C)C)nc2-c2cccc(NS(=O)(=O)c3c(F)cccc3F)c2F)n1 [Example 171] |  |  |  |
| < 6.00 |  | > 7.00 |  |  | > 7.00 | > 7.00 | < 6.00 |  |  | CC(C)c1nc(-c2cccc(NS(=O)(=O)c3cnn(C)c3)c2)c(-c2ccnc(Nc3ccc(N4CCOCC4)nc3)n2)s1 [Example 174] |  |  |  |
|  |  |  |  |  |  |  |  |  |  | COCCN1CCN(c2ccc(Nc3nccc(-c4sc(C(C)C)nc4-c4cccc(NS(=O)(=O)c5ccccc5)c4)n3)cn2)CC1.Cl [Example 7] | +++ (activity of less than 100 nM in SK-MEL-3 tumor cells) | +++ (activity of less than 100 nM in A375P F11s tumor cells) | +++ (activity of less than 100 nM in HT-29 tumor cells) |
| < 6.00 |  | 6.00 to 7.00 |  |  | 6.00 to 7.00 | > 7.00 | 6.00 to 7.00 |  |  | CC(C)c1nc(-c2ccc(F)c(NS(=O)(=O)c3c(F)cccc3F)c2)c(-c2ccnc(Nc3ccc(N4CCN(CCS(C)(=O)=O)CC4)c(F)c3)n2)o1 [Example 61] |  |  |  |
| 6.00 to 7.00 |  | < 6.00 |  |  | < 6.00 | 6.00 to 7.00 | 6.00 to 7.00 |  |  | CCc1nc(-c2ccc(F)c(NS(=O)(=O)c3ccccc3)c2)c(-c2ccnc(Nc3ccc(N4CCN(C(C)C)CC4)cc3OC)n2)s1 [Example 69] |  |  |  |
| > 7.00 |  | 6.00 to 7.00 |  |  | 6.00 to 7.00 | 6.00 to 7.00 | > 7.00 |  |  | COc1cc(N2CCN(CCS(C)(=O)=O)CC2)c(C)cc1Nc1nccc(-c2scnc2-c2cccc(NS(=O)(=O)c3c(F)cccc3F)c2)n1 [Example 163] |  |  |  |
| < 6.00 |  | 6.00 to 7.00 |  |  | 6.00 to 7.00 | 6.00 to 7.00 | 6.00 to 7.00 |  |  | COc1cc(N2CCN(CCS(C)(=O)=O)CC2)c(C)cc1Nc1nccc(-c2sc(C(C)C)nc2-c2cccc(NS(=O)(=O)c3cnn(C)c3)c2)n1 [Example 173] |  |  |  |
| < 6.00 |  | < 6.00 |  |  | < 6.00 | 6.00 to 7.00 | < 6.00 |  |  | CC(C)c1nc(-c2cccc(NS(=O)(=O)Cc3ccccc3)c2)c(-c2ccnc(Nc3ccc(N4CCOCC4)c(F)c3)n2)s1 [Example 86] |  |  |  |
| < 6.00 |  | < 6.00 |  |  | < 6.00 | 6.00 to 7.00 | < 6.00 |  |  | COc1cc(C)ccc1S(=O)(=O)Nc1cccc(-c2nc(C(C)C)sc2-c2ccnc(Nc3ccc(N4CCN(C(C)=O)CC4)nc3)n2)c1 [Example 76] |  |  |  |
| < 6.00 |  | > 7.00 |  |  | > 7.00 | > 7.00 | < 6.00 |  |  | O=S(=O)(Nc1cccc(-c2nc(N3CCCCC3)sc2-c2ccnc(Nc3ccc(N4CCOCC4)c(F)c3)n2)c1)c1c(F)cccc1F [Example 154] |  |  |  |
| < 6.00 |  | 6.00 to 7.00 |  |  | 6.00 to 7.00 | 6.00 to 7.00 | < 6.00 |  |  | CC(C)c1nc(-c2ccc(F)c(NS(=O)(=O)c3c(F)cccc3F)c2)c(-c2ccnc(Nc3ccncn3)n2)s1 [Example 148] |  |  |  |
| 6.00 to 7.00 |  | < 6.00 |  |  | < 6.00 | 6.00 to 7.00 | 6.00 to 7.00 |  |  | COc1cc2c(cc1Nc1nccc(-c3sc(C(C)C)nc3-c3cccc(NS(=O)(=O)c4c(F)cccc4F)c3)n1)N(C(=O)CN(C)C)CC2 [Example 118] |  |  |  |
